Source: patent US9815831B2, “3,5-disubstituted-3H-imidazo[4,5-B]pyridine and 3,5-disubstituted-3H-[1,2,3]triazolo[4,5-B] pyridine compounds as modulators of c-Met protein kinases” (Rhizen Pharmaceuticals SA, priority 2012, dated 2017)
Read-outs that look alike come from different tables or passages of the source.

Key:
[1] = biological target: T1, human recombinant Met kinase (Homo sapiens, UniProt P08581); experiment: Colorimetric determination of c-Met kinase activity (HTScan Met Kinase Assay Kit); type: biochemical; conditions: Table 4A; 100 nM (cells without *); read-out: c-Met Enzyme % inhibition @ 100 nM
T1 construct: purchased Cell Signalling Technology, Beverly, Mass
T1 sequence (P08581 25-1390): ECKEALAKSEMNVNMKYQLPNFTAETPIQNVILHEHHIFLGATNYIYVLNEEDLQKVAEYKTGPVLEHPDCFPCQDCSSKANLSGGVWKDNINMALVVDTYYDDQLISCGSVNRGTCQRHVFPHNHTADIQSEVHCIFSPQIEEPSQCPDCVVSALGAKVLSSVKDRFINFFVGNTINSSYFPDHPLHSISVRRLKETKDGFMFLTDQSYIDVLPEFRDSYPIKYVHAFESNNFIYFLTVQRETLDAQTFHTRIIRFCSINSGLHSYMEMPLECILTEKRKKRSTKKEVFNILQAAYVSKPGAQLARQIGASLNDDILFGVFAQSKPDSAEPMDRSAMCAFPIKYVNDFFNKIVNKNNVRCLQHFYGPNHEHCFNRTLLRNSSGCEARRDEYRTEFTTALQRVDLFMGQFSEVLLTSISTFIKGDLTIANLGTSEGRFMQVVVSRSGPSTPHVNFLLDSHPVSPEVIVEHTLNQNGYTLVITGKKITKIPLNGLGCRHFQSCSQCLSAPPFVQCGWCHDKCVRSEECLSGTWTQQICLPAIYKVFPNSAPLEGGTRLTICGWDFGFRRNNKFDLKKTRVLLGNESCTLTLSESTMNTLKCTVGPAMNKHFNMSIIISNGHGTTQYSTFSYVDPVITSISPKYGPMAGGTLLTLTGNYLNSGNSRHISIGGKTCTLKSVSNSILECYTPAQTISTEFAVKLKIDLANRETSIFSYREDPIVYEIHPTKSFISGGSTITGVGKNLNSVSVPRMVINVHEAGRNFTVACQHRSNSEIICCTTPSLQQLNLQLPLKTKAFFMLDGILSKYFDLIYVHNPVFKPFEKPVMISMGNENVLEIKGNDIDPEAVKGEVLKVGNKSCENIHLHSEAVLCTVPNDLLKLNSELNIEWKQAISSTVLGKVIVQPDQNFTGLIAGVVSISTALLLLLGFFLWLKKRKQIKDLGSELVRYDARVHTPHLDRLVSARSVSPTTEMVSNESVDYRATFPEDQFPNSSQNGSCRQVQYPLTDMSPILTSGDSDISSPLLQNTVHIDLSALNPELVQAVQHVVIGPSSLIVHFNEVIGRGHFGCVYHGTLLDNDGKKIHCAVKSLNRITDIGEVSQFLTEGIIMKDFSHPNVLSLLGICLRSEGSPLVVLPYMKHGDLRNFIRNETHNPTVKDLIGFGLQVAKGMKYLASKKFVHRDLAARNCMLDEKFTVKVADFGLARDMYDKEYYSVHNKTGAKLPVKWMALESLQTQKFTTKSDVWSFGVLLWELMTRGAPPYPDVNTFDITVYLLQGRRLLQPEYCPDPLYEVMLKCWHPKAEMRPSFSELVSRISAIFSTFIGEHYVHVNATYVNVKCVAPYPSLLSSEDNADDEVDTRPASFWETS
Method in brief: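 Human recombinant Met kinase was preincubated with compound for 5 min at room temperature, then reacted with ATP and biotinylated peptide for 30 min; EDTA stop. Phosphopeptide captured on streptavidin and detected with phospho-tyrosine mAb and europium anti-mouse IgG by time-resolved fluorescence (340/615 nm). Reported as % inhibition or IC50.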

MKN-45 = experiment: Inhibition of MKN-45 proliferation (MTT); type: cell-based, human; conditions: MKN-45 proliferation; for inhibition at 0.1 µM / GI50: Homo sapiens; for inhibition at 0.1 µM: read-out: MKN45 % inhibition @ 100 nM; for GI50: read-out: MKN45 GI50
Method in brief: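 High-Met human gastric adenocarcinoma MKN-45 cells plated on day 1 and exposed to compound from day 2. Viability measured by MTT dye reduction on day 5; output given as % inhibition at 100 nM and GI50.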

c-Met kinase [2] = biological target: T2, c-Met kinase (Homo sapiens, UniProt P08581); experiment: Inhibition of c-Met kinase phosphorylation in NCI-H441 cells (cell based ELISA); conditions: Table 5, 1 h incubation
T2 sequence (P08581 25-1390): as above
Experimental: 5. Inhibition of c-Met Kinase Phosphorylation in NCI-H441 Cells:
Inhibition of Met phosphorylation was determined using a cell based ELISA assay according to the following schedule: • Day 1: NCI-H441 cells were plated in 96-well plates in complete growth medium. • Day 2: Inhibitors at the desired concentration were added to the plates, incubated for 1 h and lysed subsequently. Lysates were transferred to NUNC Maxisorp plates coated with anti-cMet receptor antibody. Phopho-tyrosine mAb and HRP-lined anti-mouse IgG were used as primary and secondary antibodies respectively. Optical density was measured on a microplate reader (BMG Labtech., Germany) at […]. […] Results: The results are given below in Table 5 as IC50 values.

Akt [3] = experiment: Inhibition of Akt phosphorylation in NCI-H441 cells (Western blot); type: cell-based; conditions: Homo sapiens, Table 6, 0-1000 nM
Experimental: (§1) 6. Inhibition of Akt Phosphorylation in MKN-45 or NCI-H441 Cells:
(§2) Akt is a serine-threonine kinase and a downstream marker regulated by c-Met kinase via the PI3K pathway. Once phosphorylated, Akt regulates several end processes including cell survival and growth. Cells were treated with 0-1000 nM of test compounds, lysed, and the proteins separated on a 10% SDS-PAGE. Following separation, proteins were transferred onto a nitrocellulose membrane and detected by chemiluminescence after incubation with […] (primary) and rabbit anti-mouse Ab (secondary). Intensity of the bands was determined using ImageJ 1.42q (NIH, USA) and normalized to Actin (loading control).
(§3) Results: The results are provided below as IC50 values in Table 6.

[4] = biological target: T1, human recombinant Met kinase; experiment: Colorimetric determination of c-Met kinase activity (HTScan Met Kinase Assay Kit); type: biochemical; conditions: read-out: c-Met Enzyme IC50
MDA-MB-231 cells = experiment: Inhibition of HGF-induced cell proliferation in MDA-MB-231 cells (MTT); type: cell-based; conditions: Homo sapiens, Table 8, HGF (50 ng/ml)
Experimental: 8. Inhibition of HGF-Induced Met Phosphorylation in MDA-MB-231 Cells:
MDA-MB-231 is a breast cancer cell line having a high level of c-Met expression. Activation of Met kinase in these cells occurs only after the addition of its natural ligand, Hepatocyte Growth Factor (HGF). Upon binding to the extracellular domain of the enzyme, it triggers phosphorylation of tyrosine residues and regulates several downstream events such as cell proliferation. Cell proliferation assays were carried out using the high Met expressing cell line (MDA-MB-231) according to the following schedule: • Day 1: Cells were plated in 96-well plates in complete growth medium. • Day 2: Media was replaced with starvation medium containing 0.04% BSA. • Day 3: Inhibitors at the desired concentrations and HGF (50 ng/ml) were added. • Day 5: Cell viability was determined using the 3-[4,5-dimethylthiazol-2-yl]-2,5-diphenyltetrazolium bromide (MTT) dye reduction test. […] Results: The results are provided below in Table 8 as IC50 values.

Akt [5] = experiment: Inhibition of Akt phosphorylation in MKN-45 cells (Western blot); type: cell-based; conditions: Homo sapiens, Table 6, 0-1000 nM
Experimental: as §1, §2, §3

MKN-45 cells = experiment: Induction of apoptosis in MKN-45 cells (caspase-3 activity); type: cell-based, human; conditions: percentage induction @ 3 μM; caspase-3, MKN-45 cells, 24 h; percent of maximum response
Experimental: 7. Induction of Apoptosis in MKN-45 Cells: I
Induction of Caspase 3 was measured fluorimetrically. Cells were incubated with desired concentrations of the compound for 24 h. After incubation, cells were harvested and counted. An equal number of viable cells per well (0.3×10^6 cells) were used for determination of caspase-3 activity. Increase in apoptosis manifested by an elevation in caspase-3 levels was determined using a Caspase-3 kit from Millipore. Data are expressed as a percent of the maximum response (100%).
Results: The results are provided below as percentage induction @ 3 μM in Table 7.

c-Met kinase [6] = biological target: T2, c-Met kinase; experiment: Inhibition of c-Met kinase phosphorylation in MKN-45 cells (cell based ELISA); design: endogenous in cells; host or cells: MKN-45; conditions: Table 4D, 1 h incubation
Experimental: MKN45 cells are a prototype of “c-Met addicted” cells having constitutively activated c-Met kinase similar to that observed in sub-sects of gastric or hepatocellular cancer patients with dysregulated c-Met kinase activity. Inhibition of Met phosphorylation was determined using a cell based ELISA assay according to the following schedule: • Day 1: MKN-45 cells were plated in 96-well plates in complete growth medium. • Day 2: Inhibitors at the desired concentration were added to the plates and incubated for 1 h and lysed subsequently. Lysates were transferred to NUNC Maxisorp plates coated with anti-cMet receptor antibody. Phopho-tyrosine mAb and HRP-lined anti-mouse IgG were used as primary and secondary antibodies respectively. Optical density was measured on a microplate reader (BMG Labtech., Germany) at […]. Inhibition of c-Met phosphorylation in this cell line indicates a therapeutic potential for test compounds in patients diagnosed with cancers caused by aberrant c-Met kinase signalling. Results: The results are provided above in Table 4D as IC50 values.

SMILES	inhibition at 0.1 µM [1] [%]	inhibition at 0.1 µM (MKN-45; MKN-45, Table 4A, 100 nM) [%]	GI50 (MKN-45; MKN-45, Table 4A) [nM]	IC50 (c-Met kinase [2]) [nM]	IC50 (Akt [3]) [nM]	IC50 ([4]; Table 4A) [nM]	IC50 (MDA-MB-231 cells) [nM]	IC50 (Akt [5]) [nM]	% induction of caspase-3 activity (MKN-45 cells)	IC50 (c-Met kinase [6]) [nM]	MKN45 % inhibition @ 100 nM (MKN-45; Table 4A, 100 nM, 0.1 µM)	inhibition at 0.1 µM (MKN-45; MKN-45, Table 4C, 100 nM) [%]	GI50 (MKN-45; MKN-45, Table 4C) [nM]	IC50 ([4]; Table 4C) [nM]
CC(C)(O)CONC(=O)c1ccc(-c2ccc3nnn(Cc4ccc5ncccc5c4)c3n2)cc1Cl [Example 30, 2-chloro-N-(2-hydroxy-2-methylpropoxy)-4-(3-(quinolin-6-ylmethyl)-3H-[1,2,3]triazolo[4,5-b]pyridin-5-yl) benzamide]	75 to 100	75 to 100	25 to 50	10 to 25	≤ 10	25 to 50	< 10	25 to 50	B (B is <75 and ≧50)	25 to 50				
Cc1cc(-c2ccc3nnn(Cc4ccc5ncccc5c4)c3n2)ccc1C(=O)NOCCO [Example 25, N-(2-hydroxyethoxy)-2-methyl-4-(3-(quinolin-6-ylmethyl)-3H-[1,2,3]triazolo[4,5-b]pyridin-5-yl)benzamide]	75 to 100		25 to 50	≤ 10	≤ 10	25 to 50	< 10	10 to 25	B (B is <75 and ≧50)	25 to 50	A (A= ≧75 to 100%)			
NC(=O)c1c(F)cc(-c2ccc3nnn(Cc4ccc5ncsc5c4)c3n2)cc1F [Example 1006, 4-(3-(benzo[d]thiazol-6-ylmethyl)-3H-[1,2,3]triazolo[4,5-b]pyridin-5-yl)-2,6-difluorobenzamide]				≤ 10	≤ 10		10 to 50	25 to 50	B (B is <75 and ≧50)	25 to 50		75 to 100	25 to 50	25 to 50
